For 81 compounds, logP results are on record in the OPERA property sets (Mansouri et al. 2018).

The logP is a log measure of how a compound divides between an organic and an aqueous phase. Higher therefore signals a more lipophilic compound.

The compound `CCC1OC(=O)C(C)C(OC2CC(C)(OC)C(O)C(C)O2)C(C)C(OC2OC(C)CC(N(C)C)C2O)C(C)(O)CC(C)C(=O)C(C)C(OC(C)=O)C1(C)O` (stereo unspecified) returned a logP of 2.85.
Compound `Cc1ccc(C)c(O)c1C` came in with a lipophilicity (logP) of 2.67.
As to `CC(C)(C)c1cccc(O)c1`, the logP stood at 3.3.
`CCN1CC(C(O)C(CC2CCCCC2)NC(=O)C(Cc2c[nH]cn2)NC(=O)C(CC(=O)N2CCOCC2)Cc2ccccc2)OC1=O` (stereo unspecified): the logP was 2.2.
For `COc1ccc(N2Cn3c(nc4ccccc4c3=O)C2C)cc1` (stereo unspecified) the value was 1.73; for `CC1CCCc2nccc(=O)n21` (stereo unspecified), 0.3; for `NC(=O)c1cc(Cl)ccc1NCCO`, 1.26.
With `CC[C@@H]1C(=O)OC[C@@H]1Cc1cncn1C`, the logP is 0.12.
Regarding `Nc1ncc(Cc2cccc(Cl)c2)c(N)n1`, the logP was 2.29.
Compound `c1ccc2c(c1)ccc1cc3c(ccc4ccccc43)cc12` gave a logP of 6.75.
For `CC(=O)c1cccc(Nc2ccccc2C(=O)O)c1` the value was 4.07; for `Cc1cc(Br)cc(C)c1N=C1NCCN1`, 2.8.
`O=C(Cn1ccnc1[N+](=O)[O-])NCC(O)CO` (stereo unspecified) had a logP of -1.85.
`CCCOC(=O)CNC(=O)CCCCSc1ncnc2nc[nH]c12`: the logP was determined as 1.37.
`Cc1ccccc1C(OCCN(C)C)c1ccccc1` (stereo unspecified) gave a logP of 3.77.
Take `C#CC1(O)C(F)CC2C3CCc4cc(O)ccc4C3C(OC)CC21C` (stereo unspecified): the logP is 2.87.
Turning to `O=C(CN1CCCCC1)NCc1ccccc1`, the logP was determined as 2.27.
On to `Cc1ccc(C(=O)c2ccc(CC(=O)O)n2C)cc1`, for which the logP turned out to be 2.79.
For `C#C[C@]1(O)CC[C@H]2[C@@H]3CCc4cc(O)ccc4[C@H]3[C@@H](OC)C[C@@]21C` the value was 3.01; for `COc1cc(C(=O)OC2N=C(c3ccccc3)c3cc(Cl)ccc3NC2=O)cc(OC)c1OC` (stereo unspecified), 3.75.
With `FC(F)(c1ccccc1)C(F)(F)c1ccccc1`, the logP was 5.
For `OCc1cc(Br)ccc1O` the value was 1.72; for `CC(C)OC(=O)[C@@H](N)Cc1ccc(O)c(O)c1`, 0.57.
Consider `CCCCc1ccc(N2C(N)=NC(N)=NC2(C)C)cc1`, for which the logP turned out to be 2.66.
`O=[N+]([O-])c1nccn1CCN1CCOCC1` gave a logP of -0.1.
The compound `Oc1ccc(O)c2ccccc12` came in with a logP of 1.9.
On to `Cc1cc(=O)oc2c1ccc1occc12`, for which the logP came out at 2.32.
In turn, `O=c1ccccc(O)c1` registered a logP of 0.81.
In turn, `Cc1coc2ccc3ccc(=O)oc3c12` gave a logP of 2.38.
`CC(C)NCC(O)c1ccc2ccccc2c1` (stereo unspecified) registered a logP of 3.
With `COCCNC(=O)COc1ccc(OCCNCC(O)COc2ccccc2)cc1` (stereo unspecified) the figure was 1.7; with `c1ccc2cc3cc4ccccc4cc3cc2c1`, 5.76.
For `CCOC(=O)C(C(=O)OCC)=C1SCCS1` the value was 2.45; for `COc1ncnc(NS(=O)(=O)c2ccc(N)cc2)c1OC(C)C`, 1.03.
`OC(Cn1ccnc1)(c1ccc(-c2cccnc2)cc1)c1ccc(F)cc1F` (stereo unspecified) gave a logP of 3.31.
For `C=C(C)OCc1ccccc1` the value was 2.41; for `C=C1C(=O)O[C@H]2[C@H]1[C@H](OC(=O)/C(C)=C\C)CC(=C)[C@@H]1[C@H](O)[C@H]3O[C@@]3(C)[C@@]12O`, 1.69.
As to `CCN(CC)CCCCCCC(=O)Nc1c(C)cccc1C`, the logP is 3.48.
`Cc1ccc(F)cc1NC1=NCCN1` had a logP of 1.41.
Consider `CC(=O)c1nc([N+](=O)[O-])n(CC(C)O)c1C` (stereo unspecified), for which the logP is 0.37.
Take `CCCCCC1Nc2cc(C(F)(F)F)c(S(N)(=O)=O)cc2S(=O)(=O)N1` (stereo unspecified): the logP turned out to be 2.66.
With `Cc1ccc(S(=O)(=O)NC(=O)NN2CCCC2)cc1` the figure was 0.65; with `CNC(=O)OCc1c2c(n3c1C(OC(C)=O)CC3)C(=O)C=C(N1CCCC1)C2=O` (stereo unspecified), 1.4; with `C#CC1(O)C(F)CC2C3CCc4cc(O)ccc4C3CCC21C` (stereo unspecified), 3.3.
For `COC1CC2(C)C(O)CCC2C2CCc3cc(O)ccc3C12` (stereo unspecified), the logP turned out to be 2.72.
`O=Nc1ccc(O)c(=O)cc1` registered a logP of 0.83.
Compound `O=C(O)c1cc2ccccc2cc1O` had a logP of 3.05.
For `CNC(=O)OC1OC(=O)C2C3C=CC(C3)C12` (stereo unspecified), the lipophilicity (logP) worked out at 0.63.
The compound `CCOC(=O)CC(NC(=O)CCCCSc1ncnc2nc[nH]c12)C(=O)OCC` (stereo unspecified) registered a logP of 1.33.
Regarding `C=C1C(=O)OC2C1C(OC(=O)C(C)=CC)CC(O)(CCl)C1C(OC(C)=O)C=C(C)C21O` (stereo unspecified), the logP was determined as 1.42. This logP and that of the compound before are within 0.2 log units of each other.
In turn, `C[C@@H]1CC2=CC(=O)CC[C@@H]2[C@H]2CC[C@@]3(C)[C@@H](CC[C@]3(C)O)[C@@H]21` gave a log partition coefficient (logP) of 3.19.
As to `CCCCCCC(C)(C)c1ccc(C2CCCC(O)C2)c(O)c1` (stereo unspecified), the logP is 6.68.
As to `Oc1ccc2c(c1)CCCC2`, the logP amounted to 2.9.
Regarding `Cc1ncc(CO)c(CO)c1O`, the logP was -0.77.
`NNc1nncc2ccccc12`: the logP amounted to 1.
As to `Cc1nc2n(c(=O)c1C)CCCC2`, the logP came to 0.6.
For the compound `CCCCOC(=O)c1cc(=O)[nH]c(=O)[nH]1`, the logP worked out at 1.06.
For `CC(C)(C)c1ccc(C2C(=O)c3ccccc3C2=O)cc1` the value was 4.88; for `CC1OC(OC2C(O)CC(OC3C(O)CC(OC4CCC5(C)C(CCC6C5CC(O)C5(C)C(C7COC(=O)C7)CCC65O)C4)OC3C)OC2C)CC(O)C1O` (stereo unspecified), 1.36; for `OC(CCN1CCCCC1)(c1ccccc1)C1CCCCC1` (stereo unspecified), 4.49.
With `N#CC(CCN1CCC(C(N)=O)(N2CCCCC2)CC1)(c1ccccc1)c1ccccc1` the figure was 3.91.
In the case of `O=C(O)C1CCc2cc(Cl)ccc2O1` (stereo unspecified), the logP turned out to be 2.4.
With `Cc1ccc(S(=O)(=O)NC(=O)NN2CCCCC2)cc1`, the logP amounted to 1.34.
With `CCCN(CCC)CC(=O)NC1c2ccccc2-c2ccccc21` the figure was 4.61; with `CC1c2nc3ccccc3c(=O)n2CN1Cc1ccccc1` (stereo unspecified), 1.72; with `Cc1ccc2[nH]c(=O)nc(-c3ccccc3)c2c1`, 2.32.
Turning to `CN(C)[C@@H]1C(O)=C(C(N)=O)C(=O)[C@@]2(O)C(O)=C3C(=O)c4c(O)ccc(Cl)c4[C@@](C)(O)[C@H]3C[C@@H]12`, the logP was -0.62.
On to `CCCCNC(=O)n1cc(F)c(=O)[nH]c1=O`, for which the logP was 1.44.
For `O=c1ccn([C@H]2CC[C@@H](CO)O2)c(=O)[nH]1`, the logP is -1.
As to `CCCOc1ccc(Cc2cnc(N)nc2N)cc1OC`, the logP worked out at 2.02.
For `Cc1[nH]c2ccccc2c1C`, the logP was found to be 3.05.
As for `CCNc1ccc(C(=O)OCCN(C)C)cc1`, the logP was found to be 2.62.
Compound `Clc1ccc(-c2ccccc2)c(Cl)c1` came in with a logP of 5.16.
Regarding `Cc1c2ccccc2c(C)c2ccccc12`, the logP worked out at 5.69.
For `Cc1cccc(C)c1NC(=O)C(C)N` (stereo unspecified), the logP came out at 0.76.
In the case of `COC(=O)C(C(=O)OC)=C1SCCS1`, the logP amounted to 1.51.
`O=[N+]([O-])c1cnc(C=Cc2ccc3c(c2)OCO3)n1CCO`: the logP is 2.03.
Regarding `CCCCCCC(C)(C)c1cc(O)c2c(c1)OC(C)(C)C1CCC(CO)=CC21` (stereo unspecified), the logP was 7.83.
For the compound `CSC(C)=NOC(=O)N(C)SN(C(=O)N(C)C)C1CC1`, the logP was determined as 2.
With `CCOP(N)(=O)ON=C(C#N)c1ccccc1` (stereo unspecified) the figure was 0.72; with `CC1=C(C(=O)Nc2ccccc2-c2ccccc2)SCCO1`, 2.54.
